Results from the supplement of paper PMC10307832.

Experiments:
Assay in all cases: relative viability (nuclei count vs DMSO), 5 days (fraction); higher = more cells survive
Trametinib + OSI-027 = compound: CC(=O)Nc1cccc(-n2c(=O)n(C3CC3)c(=O)c3c(Nc4ccc(I)cc4F)n(C)c(=O)c(C)c32)c1 [Trametinib] + COc1cccc2cc(-c3nc([C@H]4CC[C@H](C(=O)O)CC4)n4ncnc(N)c34)[nH]c12 [OSI-027] (partner 0.5 µM)
Summary of the method: (§1)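 Each reported value is a median over duplicate plates. It expresses relative viability: treated-well nuclei count divided by vehicle-well nuclei count. Lung cancer cell lines in 1536-well plates were dosed by pin tool a day after seeding, alone with one drug or with a fixed anchor-drug dose plus five library-drug doses (not always all listed) in √10 steps, and nuclei were counted after 5 days.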

[1] = compound: CN1C=C(C2=CC=CC=C21)/C=C\3/C4=C(C=CC=N4)NC3=O + CC1(C)CCC(c2ccc(Cl)cc2)=C(CN2CCN(c3ccc(C(=O)NS(=O)(=O)c4ccc(N[C@H](CCN5CCOCC5)CSc5ccccc5)c(S(=O)(=O)C(F)(F)F)c4)cc3)CC2)C1 [Navitoclax] (partner 0.5 µM)
Summary of the method: as §1

Trametinib + Navitoclax = compound: CC(=O)Nc1cccc(-n2c(=O)n(C3CC3)c(=O)c3c(Nc4ccc(I)cc4F)n(C)c(=O)c(C)c32)c1 [Trametinib] + CC1(C)CCC(c2ccc(Cl)cc2)=C(CN2CCN(c3ccc(C(=O)NS(=O)(=O)c4ccc(N[C@H](CCN5CCOCC5)CSc5ccccc5)c(S(=O)(=O)C(F)(F)F)c4)cc3)CC2)C1 [Navitoclax] (partner 0.5 µM)
Summary of the method: as §1

[2] = compound: CN1C=C(C2=CC=CC=C21)/C=C\3/C4=C(C=CC=N4)NC3=O + C[C@]1(O)C[C@@H](c2nc(-c3ccc4ccc(-c5ccccc5)nc4c3)c3c(N)nccn32)C1 [Linsitinib] (partner 1 µM)
Summary of the method: as §1

Cell Line | relative viability (Trametinib + OSI-027; first compound 0.0025 µM) | relative viability (Trametinib + OSI-027; first compound 0.007906 µM) | relative viability (Trametinib + OSI-027; first compound 0.025 µM) | relative viability (Trametinib + OSI-027; first compound 0.07906 µM) | relative viability (Trametinib + OSI-027; first compound 0.25 µM) | relative viability ([1]; first compound 0.02 µM) | relative viability ([1]; first compound 0.06325 µM) | relative viability ([1]; first compound 0.2 µM) | relative viability ([1]; first compound 0.6325 µM) | relative viability ([1]; first compound 2 µM) | relative viability (Trametinib + Navitoclax; first compound 0.0025 µM) | relative viability (Trametinib + Navitoclax; first compound 0.007906 µM) | relative viability (Trametinib + Navitoclax; first compound 0.025 µM) | relative viability (Trametinib + Navitoclax; first compound 0.07906 µM) | relative viability (Trametinib + Navitoclax; first compound 0.25 µM) | relative viability ([2]; first compound 0.02 µM) | relative viability ([2]; first compound 0.06325 µM) | relative viability ([2]; first compound 0.2 µM) | relative viability ([2]; first compound 0.6325 µM) | relative viability ([2]; first compound 2 µM)
NCI-H596 | 0.531 | 0.62 | 0.407 | 0.487 | 0.249 | 0.957 | 0.925 | 0.901 | 0.779 | 0.902 | 0.893 | 0.624 | 0.525 | 0.498 | 0.363 | 0.976 | 1.08 | 0.934 | 0.935 | 1.05
NCI-H460 | 0.557 | 0.332 | 0.244 | 0.141 | 0.0441 | 1.27 | 1.21 | 1.39 |  | 1.43 | 1.08 | 0.981 | 0.727 | 0.277 | 0.0346 | 0.8 | 0.838 | 0.789 |  | 0.906
NCI-H647 | 0.674 | 0.696 | 0.533 | 0.368 | 0.175 | 0.767 | 0.983 |  | 0.919 | 0.935 | 1.01 | 1.07 | 0.834 | 0.55 | 0.267 | 0.933 | 0.922 | 0.896 | 1.2 | 1.1
NCI-H838 | 0.301 | 0.298 | 0.227 | 0.281 | 0.236 | 0.941 | 1.04 | 1.05 | 1.04 | 1.1 | 1.05 | 0.973 |  | 1.01 | 0.718 | 0.662 | 0.866 | 0.944 | 0.904 | 0.986
PC-14 | 0.843 | 0.72 | 0.427 | 0.411 | 0.155 | 1.05 | 0.985 | 1.14 | 0.971 | 0.989 | 0.99 | 1.05 | 0.978 | 0.882 | 0.452 | 0.95 | 0.933 | 0.988 | 0.929 | 0.96
NCI-H1915 | 0.538 | 0.314 | 0.293 | 0.21 | 0.159 | 0.823 | 0.8 | 0.805 | 0.772 | 0.801 | 0.799 | 0.79 | 0.681 | 0.719 | 0.217 | 1.07 | 1.1 | 1.08 | 1.12 | 1.06
201T | 0.707 | 0.642 | 0.633 | 0.443 | 0.505 | 1.22 | 1.21 | 1.24 | 1.27 | 1.23 | 1.17 | 1.1 | 1.13 | 1.08 | 1.09 | 0.993 | 1.05 | 0.967 | 1.09 | 0.786
NCI-H1437 | 0.565 | 0.518 | 0.262 | 0.3 | 0.295 | 1.08 | 1.08 | 1.18 | 1.18 | 1.19 | 1.15 | 0.724 | 0.537 | 0.377 | 0.312 | 1.06 | 1.12 | 1.25 | 1.18 | 1.2
A-427 | 0.373 | 0.287 | 0.212 | 0.242 | 0.143 | 0.975 | 0.887 |  | 0.984 | 1.06 | 0.989 | 0.799 | 0.489 | 0.545 | 0.296 | 1.06 | 1.07 |  | 1.15 | 1.12
HCC-366 | 0.684 | 0.763 | 0.371 | 0.414 | 0.201 | 0.945 | 0.994 | 1.13 | 1.07 | 0.986 | 0.977 | 0.926 | 0.7 | 0.531 | 0.275 | 0.616 | 0.566 | 0.656 | 0.575 | 0.51
BEN | 0.317 | 0.274 | 0.27 | 0.294 | 0.325 | 0.0672 | 0.0704 | 0.0656 | 0.0636 | 0.0694 | 0.0591 | 0.054 |  | 0.0541 | 0.179 | 0.847 | 0.996 | 0.823 | 0.875 | 1.03
NCI-H2347 | 0.394 | 0.216 | 0.185 | 0.226 | 0.167 | 0.826 | 0.859 | 0.743 | 0.764 | 0.834 | 0.678 | 0.328 | 0.143 | 0.198 | 0.215 | 0.998 | 0.963 | 0.944 | 0.986 | 0.959
NCI-H1975 | 0.643 | 0.422 | 0.402 | 0.299 | 0.196 | 0.955 | 1.05 | 1.07 | 0.937 | 0.94 | 0.999 | 1 | 0.713 | 0.466 | 0.395 | 0.921 | 1.04 | 0.982 | 0.694 | 0.661
NCI-H2126 | 0.671 | 0.506 | 0.375 | 0.535 | 0.488 | 0.789 | 0.824 | 0.833 | 0.859 | 0.8 | 0.781 | 0.684 | 0.516 | 0.589 | 0.508 | 0.739 | 0.751 | 0.727 | 0.745 | 0.65
NCI-H2087 | 0.323 | 0.275 | 0.139 | 0.137 | 0.101 | 1.01 | 0.843 | 1.19 | 1.03 | 1.13 | 0.718 | 0.406 | 0.244 | 0.223 | 0.257 | 0.82 | 0.708 | 1.02 | 0.944 | 1.23
